Reference: the supplement of paper PMC10307832

Tests used:
Assay in all cases: relative viability (nuclei count vs DMSO), 5 days (fraction); higher = more cells survive
Dinaciclib + Crizotinib = compound: CCc1cnn2c(NCc3ccc[n+]([O-])c3)cc(N3CCCC[C@H]3CCO)nc12 [Dinaciclib] + C[C@@H](Oc1cc(-c2cnn(C3CCNCC3)c2)cnc1N)c1c(Cl)ccc(F)c1Cl [Crizotinib] (partner 1 µM)
Summary of the method: (§1)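 Lung cancer cell lines, seeded in 1536-well plates, were treated the following day by pin tool with a single drug or with five library-drug doses (not always all listed) in √10 steps on top of a fixed anchor-drug dose. Cells were fixed and nuclei stained in one step after 5 days, and nuclei were counted. Relative viability is the nuclei count for treated wells divided by that for vehicle wells, reported as medians of duplicate plates.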

Dinaciclib + Linsitinib = compound: CCc1cnn2c(NCc3ccc[n+]([O-])c3)cc(N3CCCC[C@H]3CCO)nc12 [Dinaciclib] + C[C@]1(O)C[C@@H](c2nc(-c3ccc4ccc(-c5ccccc5)nc4c3)c3c(N)nccn32)C1 [Linsitinib] (partner 1 µM)
Summary of the method: as §1

Dinaciclib + Vorinostat = compound: CCc1cnn2c(NCc3ccc[n+]([O-])c3)cc(N3CCCC[C@H]3CCO)nc12 [Dinaciclib] + O=C(CCCCCCC(=O)Nc1ccccc1)NO [Vorinostat] (partner 1 µM)
Summary of the method: as §1

Dinaciclib = compound: CCc1cnn2c(NCc3ccc[n+]([O-])c3)cc(N3CCCC[C@H]3CCO)nc12 [Dinaciclib]
Summary of the method: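 Lung cancer cell lines in 1536-well plates were exposed by pinning to five library-drug doses (not always all listed) √10 apart, following an overnight hold at 37 °C. MetaXpress counted Hoechst-stained nuclei from 4× images taken after 5 days without medium change. Viability is the median ratio of treated-well to vehicle-well nuclei across plates. Plates required control CV below 25% and at least one doubling.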

Dinaciclib + Luminespib = compound: CCc1cnn2c(NCc3ccc[n+]([O-])c3)cc(N3CCCC[C@H]3CCO)nc12 [Dinaciclib] + CCNC(=O)c1noc(-c2cc(C(C)C)c(O)cc2O)c1-c1ccc(CN2CCOCC2)cc1 [Luminespib] (partner 0.01 µM)
Summary of the method: as §1

| Cell Line | relative viability (Dinaciclib + Crizotinib; first compound 0.009487 µM) | relative viability (Dinaciclib + Crizotinib; first compound 0.03 µM) | relative viability (Dinaciclib + Crizotinib; first compound 0.09487 µM) | relative viability (Dinaciclib + Crizotinib; first compound 0.3 µM) | relative viability (Dinaciclib + Linsitinib; first compound 0.009487 µM) | relative viability (Dinaciclib + Linsitinib; first compound 0.03 µM) | relative viability (Dinaciclib + Linsitinib; first compound 0.09487 µM) | relative viability (Dinaciclib + Linsitinib; first compound 0.3 µM) | relative viability (Dinaciclib + Vorinostat; first compound 0.009487 µM) | relative viability (Dinaciclib + Vorinostat; first compound 0.03 µM) | relative viability (Dinaciclib + Vorinostat; first compound 0.09487 µM) | relative viability (Dinaciclib + Vorinostat; first compound 0.3 µM) | relative viability (Dinaciclib; 0.009487 µM) | relative viability (Dinaciclib; 0.03 µM) | relative viability (Dinaciclib; 0.09487 µM) | relative viability (Dinaciclib; 0.3 µM) | relative viability (Dinaciclib + Luminespib; first compound 0.009487 µM) | relative viability (Dinaciclib + Luminespib; first compound 0.03 µM) | relative viability (Dinaciclib + Luminespib; first compound 0.09487 µM) | relative viability (Dinaciclib + Luminespib; first compound 0.3 µM) |
| --- | --- | --- | --- | --- | --- | --- | --- | --- | --- | --- | --- | --- | --- | --- | --- | --- | --- | --- | --- | --- |
| HCC-78 | 0.352 | 0.181 | 0.108 | 0.137 | 0.556 | 0.348 | 0.116 | 0.14 | 0.457 | 0.372 | 0.229 | 0.186 | 0.914 | 0.326 | 0.175 | 0.199 | – | – | – | – |
| HCC-366 | 0.358 | 0.0242 | 0.0111 | 0.0131 | 0.543 | 0.0298 | 0.0149 | 0.0167 | 0.193 | 0.0415 | 0.0286 | 0.0247 | 1.01 | 0.107 | 0.0385 | 0.0363 | – | – | – | – |
| HCC-827 | 0.946 | 0.333 | 0.16 | 0.15 | 0.951 | 0.747 | 0.181 | 0.147 | 1 | 0.747 | 0.123 | 0.159 | 1.1 | 0.85 | 0.188 | 0.168 | 0.805 | 0.108 | 0.103 | 0.107 |
| HOP-62 | 0.841 | 0.236 | 0.0602 | 0.0489 | 1.01 | 0.203 | 0.0716 | 0.0565 | 0.543 | 0.0919 | 0.0742 | 0.0609 | 0.957 | 0.474 | 0.0898 | 0.0943 | 0.778 | 0.193 | 0.0765 | 0.0749 |
| IA-LM | 0.725 | 0.0572 | 0.0441 | 0.0336 | 0.664 | 0.27 | 0.028 | 0.0252 | 0.973 | 0.547 | 0.0376 | 0.0379 | 0.804 | 0.286 | 0.0334 | 0.0226 | – | – | – | – |
| LC-2-ad | 0.441 | 0.119 | 0.109 | 0.116 | 0.745 | 0.0866 | 0.0684 | 0.0797 | 0.685 | 0.17 | 0.108 | 0.108 | 0.917 | 0.18 | 0.145 | 0.129 | 0.877 | 0.23 | 0.23 | 0.178 |
| LCLC-97TM1 | 0.346 | 0.092 | 0.0991 | 0.103 | 0.168 | 0.12 | 0.126 | 0.107 | 0.56 | 0.0645 | 0.0617 | 0.0592 | 0.506 | 0.134 | 0.0776 | 0.0861 | 0.459 | 0.111 | 0.116 | 0.109 |
| LCLC-103H | 1.06 | 1.03 | 0.329 | 0.123 | 1.13 | 0.934 | 0.18 | 0.172 | 0.777 | 0.505 | 0.178 | 0.197 | 1.03 | 0.855 | 0.204 | 0.146 | 1.08 | 0.473 | 0.12 | 0.102 |
| LK-2 | 0.232 | 0.202 | 0.21 | 0.18 | 0.523 | 0.127 | 0.159 | 0.117 | 0.251 | 0.152 | 0.148 | 0.161 | 0.888 | 0.193 | 0.177 | 0.151 | 0.165 | 0.139 | 0.166 | 0.162 |
| NCI-H522 | – | – | – | – | – | – | – | – | 1.13 | 0.99 | 0.449 | 0.319 | 0.948 | 0.72 | 0.353 | 0.296 | 1.2 | 0.653 | 0.465 | 0.276 |
| NCI-H1395 | – | – | – | – | 1.56 | 0.249 | 0.297 | 0.277 | 0.537 | 0.269 | 0.273 | 0.224 | 0.637 | 0.308 | 0.263 | 0.272 | 0.631 | 0.31 | 0.244 | 0.238 |
| NCI-H1563 | 1.03 | 0.379 | 0.34 | 0.303 | 1.39 | 0.794 | 0.331 | 0.376 | – | – | – | – | 1.25 | 0.552 | 0.314 | 0.286 | 0.526 | 0.272 | 0.177 | 0.128 |
| NCI-H1650 | 0.97 | 0.121 | 0.0986 | 0.113 | – | – | – | – | 0.798 | 0.175 | 0.119 | 0.125 | 0.943 | 0.174 | 0.134 | 0.148 | 0.226 | 0.204 | 0.158 | 0.172 |
| NCI-H1703 | 0.61 | 0.229 | 0.0855 | 0.106 | 0.767 | 0.25 | 0.0664 | 0.0983 | – | – | – | – | 1.16 | 0.531 | 0.104 | 0.118 | – | – | – | – |
| NCI-H1792 | 0.994 | 0.747 | 0.184 | 0.0753 | 0.559 | 0.317 | 0.069 | 0.0552 | – | – | – | – | 1.01 | 0.358 | 0.117 | 0.0792 | 0.422 | 0.225 | 0.117 | 0.0889 |
| NCI-H1793 | – | – | – | – | 0.818 | 0.187 | 0.119 | 0.128 | 0.599 | 0.25 | 0.107 | 0.158 | 0.78 | 0.227 | 0.152 | 0.138 | 0.218 | 0.107 | 0.144 | 0.12 |
| NCI-H2170 | 0.86 | 0.188 | 0.157 | 0.181 | – | – | – | – | 0.736 | 0.132 | 0.116 | 0.116 | 0.942 | 0.24 | 0.171 | 0.156 | 0.608 | 0.142 | 0.142 | 0.146 |
| SW 900 | – | – | – | – | – | – | – | – | 0.557 | 0.33 | 0.171 | 0.143 | 0.809 | 0.286 | 0.119 | 0.133 | 0.19 | 0.176 | 0.0768 | 0.0536 |
